# Measured values from patent US9724319B2, “Compositions and methods for the reduction or prevention of hepatic steatosis” (priority 2014, dated 2017).
# Assays:
# [1] = test system: liver mass or hepatic lipid accumulation; settings: 25 mg icariin/kg diet; corresponding to 4 mg/kg body weight/day; cited from earlier work
# [2] = test system: HFD-induced hepatic steatosis; test: Prophylactic treatment concurrent with high fat diet feeding (Examples 6-8); assay type: in vivo, C57Bl/6 mice; settings: treatments and HFD initiated on the same day, six weeks, doses as Tables 25-27
# Experimental: C57Bl/6 mice are assigned to the following experimental groups as depicted in Table 25: Drug treatments and high fat diet feeding (as described in Example 1) are initiated on the same day and are carried out for six weeks. The effects of the treatments and diet on liver mass and hepatic lipid accumulation are assessed as described in the preceding examples. […] C57Bl/6 mice are assigned to the following experimental groups as depicted in Table 26: Drug treatments and high fat diet feeding (as described in Example 1) are initiated on the same day and are carried out for six weeks. The effects of the treatments and diet on liver mass and hepatic lipid accumulation are assessed as described in the preceding examples. […] In this study, the prophylactic effects of sub-therapeutic leucine alone, and co-administration of leucine and the PDE5-specific inhibitor icariin on liver mass and hepatic steatosis are assessed. C57Bl/6 mice are assigned to the following experimental groups as depicted in Table 27: Drug treatments and high fat diet feeding (as described in Example 1) are initiated on the same day and are carried out for six weeks. The effects of the treatments and diet on liver mass and hepatic lipid accumulation are assessed as described in the preceding examples.
# [3] = test system: hepatic steatosis (lipid vesicles in liver cells); test: Histological analysis of hepatic lipid accumulation after high fat diet; settings: Example 3; HFD mice, six weeks; therapeutic metformin; combination: leucine + metformin 0.5 g/kg
# Text: (§1) Chronic high fat diet was used in C57Bl/6 mice as an experimental model of hepatic steatosis. Male C57/BL6 mice were either maintained on standard low-fat diet (control; LFD; 10% energy from fat) or placed on a high fat (HFD; 60% energy from fat, Research Diets #D12492, Research Diets, Inc, New Brunswick, N.J.) at six weeks of age to induce obesity and fatty infiltration of the liver. […] Animals were then randomized to treatments for an additional six weeks, with 10 animals per group, as specified in the following examples.
# In this study, the effects of metformin alone (therapeutic dose), subtherapeutic metformin alone, subtherapeutic leucine, and various combinations of leucine, metformin, and resveratrol on liver weight and hepatic lipid accumulation were assessed. The 1.5 g/kg diet of metformin corresponds to a therapeutically effective dose of metformin in humans. […] Likewise, the 24 g/kg dose of leucine represents a sub-therapeutic dose that was predicted to exert no significant independent effects on liver mass or hepatic steatosis. […]
# In this study, the effects of metformin alone (therapeutic dose) vs. combination therapy with sub-therapeutic amounts of metformin and leucine on liver weight and hepatic lipid accumulation were assessed. […]
# liver triglycerides = settings: Example 3; HFD mice, six weeks; metformin alone 1.5 g/kg diet; combination: leucine + metformin 0.5 g/kg
# Text: as §1
# (§2) In this study, the effects of metformin alone (therapeutic dose) vs. combination therapy with sub-therapeutic amounts of metformin and leucine on liver weight and hepatic lipid accumulation were assessed. Following induction of hepatic steatosis as described in Example 1, animals were treated for six weeks according to the following treatment groups as depicted in Table 22:
# [4] = test system: high fat diet-induced hepatic steatosis; test: Liver weight after treatment of high fat diet-induced hepatic steatosis; assay type: in vivo, C57Bl/6 mice; settings: HFD mice, six weeks, metformin 1.5 g/kg diet
# Text: as §1
# In this study, the effects of metformin alone (therapeutic dose), subtherapeutic metformin alone, subtherapeutic leucine, and various combinations of leucine, metformin, and resveratrol on liver weight and hepatic lipid accumulation were assessed. The 1.5 g/kg diet of metformin corresponds to a therapeutically effective dose of metformin in humans. […] Likewise, the 24 g/kg dose of leucine represents a sub-therapeutic dose that was predicted to exert no significant independent effects on liver mass or hepatic steatosis. Following induction of hepatic steatosis as described in Example 1, animals were treated according to the following treatment groups as depicted in Table 21:
# as §2
compound,measurement,setting,value
COc1ccc(-c2oc3c(CC=C(C)C)c(O[C@@H]4O[C@H](CO)[C@@H](O)[C@H](O)[C@H]4O)cc(O)c3c(=O)c2O[C@@H]2O[C@@H](C)[C@H](O)[C@@H](O)[C@H]2O)cc1 [icariin],Effect on hepatic lipid accumulation,[1],no effect
same,Effect on liver mass,[1],no effect
metformin,Effect on HFD-induced hepatic lipid accumulation,[2],attenuates
same,Effect on HFD-induced increase in liver mass,[2],attenuates
same,Effect on hepatic steatosis (histological analysis),[3],partially reversed hepatic steatosis
same,Effect on liver triglycerides,liver triglycerides,partially reversed the effect of high fat diet on liver triglycerides
same,Effect on liver weight,"[4]; Example 2, leucine 24 g/kg diet, resveratrol 12.5 mg/kg diet",partially reverse the effect of high fat diet on liver weight
same,Effect on liver weight,[4]; Example 3,reversed the effect of high fat diet on liver weight back to control levels
same,Effect on liver weight,[4]; Example 4,reversed the effect of high fat diet on liver weight back to control levels
